This experiment deals with CYP126 (Mycobacterium tuberculosis, UniProt P9WPN9). The experiment can be described thus: biochemical. The class given is binding.
CYP126, sequence (P9WPN9 whole entry): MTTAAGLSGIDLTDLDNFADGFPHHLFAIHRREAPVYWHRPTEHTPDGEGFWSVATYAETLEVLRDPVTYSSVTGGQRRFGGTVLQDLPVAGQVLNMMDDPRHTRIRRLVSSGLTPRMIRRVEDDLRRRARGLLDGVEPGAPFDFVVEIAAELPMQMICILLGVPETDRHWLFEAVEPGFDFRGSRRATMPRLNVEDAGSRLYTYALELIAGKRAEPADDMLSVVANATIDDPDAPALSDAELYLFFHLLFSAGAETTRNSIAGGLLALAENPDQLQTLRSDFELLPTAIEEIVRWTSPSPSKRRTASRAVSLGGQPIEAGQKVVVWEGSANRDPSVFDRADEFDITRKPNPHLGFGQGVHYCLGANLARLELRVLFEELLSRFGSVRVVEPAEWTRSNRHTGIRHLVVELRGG

`Oc1c(Cl)c(Cl)c(Cl)c(Cl)c1Cl` [TB23, pentachlorophenol] showed a dissociation constant Kd of 150 µM.

These data come from publication PMC4159592 (Chembiochem, 2014).
